Common to all, as to assay: NCI anticancer screen, dose series, 48 h
The subject of assay [1] is SF-295 CNS.
Assay [2] relates to CCRF-CEM leukemia.
The subject of assay [3] is UO-31 renal.
The subject of assay [4] is SF-539 CNS.
The subject of assay [5] is SK-MEL-28 melanoma.
The test system of assay [6] is ACHN renal.
Assay [7] has as its system UACC-257 melanoma.
Assay [8] has as its system U251 CNS.
Assay [9] relates to HL-60(TB) leukemia.
Assay [10] concerns OVCAR-5 ovarian.
The test system of assay [11] is HT29 colon.
The test system of assay [12] is IGROV1 ovarian.
The subject of assay [13] is NCI-H460 lung.
Assay [14] concerns RXF 393 renal.
The subject of assay [15] is HOP-92 NSCLC.
Assay [16] concerns NCI-H23 lung.
Assay [17] concerns NCI-H522 lung.
For assay [18], the system named is SN12C renal.
For assay [19], the system named is T-47D breast.

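Grown in 96-well plates, cells were treated for 48 hours with each compound at five concentrations. Insufficient inhibition: endpoint recorded as highest concentration tested. TGI is the concentration that stops growth completely.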

On to `CN1C(=O)n2c(nc3ccccc32)C(N=[N+]=[N-])(N=[N+]=[N-])C1=O` (stereo not given), for which the TGI in [1], in [2], in assay [3], in [4], in assay [5] and in assay [6] was more than 100 µM in each case. Further, the TGI in assay [7], in assay [8], in [9], in assay [10], in assay [11] and in assay [12] was more than 100 µM each time. For the same compound, the TGI in assay [13], in assay [14], in [15], in assay [16] and in [17] was more than 100 µM each time.

Turning to `CC(C#N)c1cn(S(=O)(=O)c2ccccc2)c2ccccc12` (stereo not given), the TGI in [1] was more than 100 µM; in assay [2], more than 100 µM; in [3] it was 62.4 µM; in assay [4] it was more than 100 µM; in [5], more than 100 µM; in assay [6], more than 100 µM. Moreover, the TGI is more than 100 µM in assay [7]; more than 100 µM in assay [8]; 88.1 µM in assay [9]; more than 100 µM in assay [10]; more than 100 µM in [11]; more than 100 µM in assay [12]. Further, the TGI was more than 100 µM in assay [13], 53.8 µM in [15], more than 100 µM in [16] and 94.9 µM in assay [17].

As to `CCSC(=Nc1ccccc1)SC`, the TGI in [1], in assay [2], in assay [3], in assay [18], in assay [4] and in assay [5] was more than 100 µM throughout. Besides, the TGI in [6], in assay [7], in assay [8], in [9], in [10] and in assay [11] was more than 100 µM in each case. Moreover, the TGI in assay [12], in assay [13], in [14], in assay [15], in [16] and in [17] was more than 100 µM throughout.

For the compound `CCc1cc(-c2nsc(=O)o2)c(S(=O)(=O)CC)s1`, the TGI in assay [1], in assay [2], in assay [3], in assay [18], in assay [4] and in assay [5] was more than 100 µM throughout. In addition, the TGI in assay [6] was more than 100 µM; in [8] it was more than 100 µM; in assay [9], 12 µM; in assay [10], more than 100 µM; in assay [11], more than 100 µM; in assay [12] it was more than 100 µM. For the same compound, the TGI in [13] was more than 100 µM; in [19] it was more than 100 µM; in assay [15], more than 100 µM; in assay [16], more than 100 µM; in assay [17] it was 57.2 µM.

As for `CC1CC(N)=Nc2ccccc2N1Cc1ccccc1` (stereo not given), the TGI in assay [1] is 27.8 µM; in [2], 33.7 µM; in assay [3], 42.3 µM; in assay [18], 30.2 µM; in assay [5], 23.8 µM; in assay [6] it was 28.5 µM. For the same compound, the TGI in [7] was 25.5 µM; in assay [8], 28.4 µM; in assay [9], 19.5 µM; in assay [10], more than 100 µM; in assay [11], 27.4 µM; in [12], 19.9 µM. In addition, the TGI in [13] was found to be 26.8 µM; in assay [14], 24.4 µM; in assay [16] it was 31.1 µM; in [17] it was 25.3 µM.

Consider `O=C1CN(c2cccc(C(F)(F)F)c2)C(=O)CN1NCNN1CC(=O)N(c2cccc(C(F)(F)F)c2)CC1=O`, for which the TGI in assay [1], in [2], in assay [3], in assay [18], in assay [4] and in [5] was more than 100 µM in each case. Further, the TGI in [6], in assay [7], in assay [8], in [9], in [10] and in [11] was more than 100 µM in each case. Besides, the TGI in assay [12], in assay [13], in [19] and in assay [17] was more than 100 µM in each case.

Regarding `COc1cc(-c2c[nH]c3ccccc23)nc(-c2c[nH]c3ccccc23)n1`, the TGI amounted to 12.7 µM in [1]; 3.08 µM in [2]; 18.1 µM in [3]; 19.8 µM in [4]; 8.46 µM in assay [6]; 20.9 µM in assay [7]. The TGI was determined as 14.9 µM in [8]; 12.9 µM in [9]; 22.1 µM in [10]; 13.4 µM in assay [11]; 13.6 µM in [12]; 12.8 µM in assay [13]. In addition, the TGI in assay [19] was 23.9 µM; in assay [15] it was 8.53 µM.

Turning to `CC1CCCOc2ccc(cc2)C=Nc2ccc(cc2)CCc2ccc(cc2)N=Cc2ccc(cc2)OCCC1` (stereo not given), the TGI in assay [1], in assay [2], in assay [3], in assay [18], in assay [4] and in assay [5] was more than 100 µM in each case. The TGI in [6], in assay [7], in [8], in assay [10], in [11] and in [12] was more than 100 µM throughout. In addition, the TGI in assay [13], in [15], in assay [16] and in [17] was more than 100 µM in each case.

For the origin of these results see PubChem BioAssay (NCI).
